Measured values: ChEMBL document CHEMBL1201862, “PubChem BioAssay data set” (2004)
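Each compound was tested at five concentrations against cells in 96-well plates for 48 hours. GI50 marks 50% less growth.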 Active and inactive are the calls of the source. Rule as the data show it: active = GI50 up to about 1.1 µM and inactive = higher.

What was measured:
Assay in all cases: NCI anticancer screen, dose series, 48 h
SK-MEL-28 = tested on: SK-MEL-28
SN12C = tested on: SN12C
MDA-MB-435 = tested on: MDA-MB-435
COLO 205 = tested on: COLO 205
HT-29 = tested on: HT-29
LOX IMVI = tested on: LOX IMVI
OVCAR-4 = tested on: OVCAR-4
SNB-19 = tested on: SNB-19
BT-549 = tested on: BT-549
OVCAR-5 = tested on: OVCAR-5
ACHN = tested on: ACHN
TK-10 = tested on: TK-10
A498 = tested on: A498
NCI-H226 = tested on: NCI-H226
HL-60 = tested on: HL-60
SNB-75 = tested on: SNB-75
IGROV-1 = tested on: IGROV-1
SW-620 = tested on: SW-620
Malme-3M = tested on: Malme-3M
NCI/ADR-RES = tested on: NCI/ADR-RES

| Structure (SMILES) | GI50 (SK-MEL-28) | GI50 (SN12C) | GI50 (MDA-MB-435) | GI50 (COLO 205) | GI50 (HT-29) | GI50 (LOX IMVI) | GI50 (OVCAR-4) | GI50 (SNB-19) | GI50 (BT-549) | GI50 (OVCAR-5) | GI50 (ACHN) | GI50 (TK-10) | GI50 (A498) | GI50 (NCI-H226) | GI50 (HL-60) | GI50 (SNB-75) | GI50 (IGROV-1) | GI50 (SW-620) | GI50 (Malme-3M) | GI50 (NCI/ADR-RES) |
| --- | --- | --- | --- | --- | --- | --- | --- | --- | --- | --- | --- | --- | --- | --- | --- | --- | --- | --- | --- | --- |
| C/C(=N\Nc1nc2ccccc2[nH]1)c1cnccn1 | 0.506 µM (active) | 1.25 µM (inactive) | 0.822 µM (active) | 0.415 µM (active) | 0.394 µM (active) | 0.361 µM (active) | 0.617 µM (active) | 2.72 µM (inactive) | 6.04 µM (inactive) | 6.84 µM (inactive) | 0.231 µM (active) | 4.09 µM (inactive) | 1.98 µM (inactive) | 0.441 µM (active) | 0.0589 µM (active) | 3.61 µM (inactive) | 0.139 µM (active) | 0.4 µM (active) | 0.791 µM (active) | 0.64 µM (active) |
| CC1=C2C(=O)NN=C2CCN1c1ccc(Br)cc1 | > 100 µM (inactive) | > 100 µM (inactive) | > 100 µM (inactive) | > 100 µM (inactive) | > 100 µM (inactive) | 62.8 µM (inactive) | > 100 µM (inactive) | > 100 µM (inactive) | 3.14 µM (inactive) | > 100 µM (inactive) | > 100 µM (inactive) | > 100 µM (inactive) | 68.7 µM (inactive) | > 100 µM (inactive) | 41.3 µM (inactive) | > 100 µM (inactive) | > 100 µM (inactive) | > 100 µM (inactive) | 35.3 µM (inactive) | > 100 µM (inactive) |
| CC(C)(C)N1CC1CNC(=O)C(=O)NCC1CN1C(C)(C)C (stereo not drawn) | 5.42 µM (inactive) | 2.33 µM (inactive) | 38.8 µM (inactive) | 3.79 µM (inactive) | 2.45 µM (inactive) | 8.24 µM (inactive) | 28.5 µM (inactive) | 13.7 µM (inactive) | 29.9 µM (inactive) | 2.62 µM (inactive) | 1.29 µM (inactive) | 51.1 µM (inactive) | 2.68 µM (inactive) | 7.83 µM (inactive) | 0.411 µM (active) | 4.32 µM (inactive) | 5.83 µM (inactive) | 3.08 µM (inactive) | 3.4 µM (inactive) | 2.55 µM (inactive) |
| C[N+](C)(C)CCN(Cc1cccs1)c1ccccn1 | > 100 µM (inactive) | 90.4 µM (inactive) | > 100 µM (inactive) | 35.2 µM (inactive) | – | > 100 µM (inactive) | > 100 µM (inactive) | > 100 µM (inactive) | 47.5 µM (inactive) | – | > 100 µM (inactive) | > 100 µM (inactive) | > 100 µM (inactive) | > 100 µM (inactive) | > 100 µM (inactive) | 59.8 µM (inactive) | > 100 µM (inactive) | > 100 µM (inactive) | > 100 µM (inactive) | > 100 µM (inactive) |
| Oc1cc(-c2ccccc2)cn2c1nc1ccccc12 | 4.31 µM (inactive) | 4.06 µM (inactive) | 0.189 µM (active) | 21.3 µM (inactive) | 8.63 µM (inactive) | 1.12 µM (active) | 4.23 µM (inactive) | 3.45 µM (inactive) | 4.55 µM (inactive) | > 100 µM (inactive) | 6.41 µM (inactive) | > 100 µM (inactive) | 11 µM (inactive) | > 25.4 µM (inactive) | 0.482 µM (active) | > 36.3 µM (inactive) | 1.43 µM (inactive) | 0.544 µM (active) | 1.41 µM (inactive) | 1.21 µM (inactive) |
| COCN1C(=O)[C@@H]2C[C@@H](OC/C=C/CBr)CN2C(=O)c2ccccc21 | 18.9 µM (inactive) | 14.1 µM (inactive) | 14.9 µM (inactive) | 15.8 µM (inactive) | 20.2 µM (inactive) | 2.04 µM (inactive) | 14.6 µM (inactive) | 21.3 µM (inactive) | 26.7 µM (inactive) | 20.1 µM (inactive) | 19.9 µM (inactive) | 19.3 µM (inactive) | 26.1 µM (inactive) | 9.38 µM (inactive) | 6.27 µM (inactive) | 10.7 µM (inactive) | 9.23 µM (inactive) | 13.9 µM (inactive) | 15.6 µM (inactive) | 26.9 µM (inactive) |
| O=c1c2ccccc2sc2nc(CCl)nn12 | 10.8 µM (inactive) | 9.08 µM (inactive) | 8.28 µM (inactive) | 13.1 µM (inactive) | 12.4 µM (inactive) | > 100 µM (inactive) | > 100 µM (inactive) | 77.4 µM (inactive) | 27 µM (inactive) | 24 µM (inactive) | 6.31 µM (inactive) | 10.4 µM (inactive) | 2.64 µM (inactive) | > 100 µM (inactive) | 14.5 µM (inactive) | 19.2 µM (inactive) | 17.2 µM (inactive) | 12.7 µM (inactive) | 18.5 µM (inactive) | > 100 µM (inactive) |
| Cc1cc(O)c2cc3c(O)c(O)ccc3cc2c1 | 9.51 µM (inactive) | 2.46 µM (inactive) | 3.63 µM (inactive) | 0.351 µM (active) | 2.54 µM (inactive) | 1.35 µM (inactive) | 0.536 µM (active) | 0.615 µM (active) | 0.726 µM (active) | 3.17 µM (inactive) | 1.77 µM (inactive) | 3.78 µM (inactive) | 3.12 µM (inactive) | 1.23 µM (inactive) | 1.73 µM (inactive) | 0.488 µM (active) | 1.51 µM (inactive) | 0.53 µM (active) | 1.4 µM (inactive) | 0.438 µM (active) |
| CC(NNC(=O)c1cc[n+]([BH2-]C#N)cc1)c1ccccc1F (stereo not drawn) | > 100 µM (inactive) | > 100 µM (inactive) | > 100 µM (inactive) | > 100 µM (inactive) | – | > 100 µM (inactive) | > 100 µM (inactive) | > 100 µM (inactive) | > 100 µM (inactive) | > 100 µM (inactive) | > 100 µM (inactive) | > 100 µM (inactive) | 3.4 µM (inactive) | > 100 µM (inactive) | > 100 µM (inactive) | > 100 µM (inactive) | > 100 µM (inactive) | > 100 µM (inactive) | > 100 µM (inactive) | > 100 µM (inactive) |
| CN(C)Cc1cc(C(=O)/C=C/c2ccc(O)cc2)cc(CN(C)C)c1O | 25.9 µM (inactive) | 23 µM (inactive) | 35.4 µM (inactive) | 19.4 µM (inactive) | 79.3 µM (inactive) | 29.7 µM (inactive) | – | > 100 µM (inactive) | 79.4 µM (inactive) | 42.1 µM (inactive) | 20.9 µM (inactive) | 53.7 µM (inactive) | 31.8 µM (inactive) | > 100 µM (inactive) | 19.1 µM (inactive) | 26.7 µM (inactive) | 45.4 µM (inactive) | 39.4 µM (inactive) | – | > 100 µM (inactive) |
| O=c1[nH]nc(-c2ccccc2)n1/N=C\c1ccccc1 | > 100 µM (inactive) | > 100 µM (inactive) | > 100 µM (inactive) | > 100 µM (inactive) | > 100 µM (inactive) | > 100 µM (inactive) | > 100 µM (inactive) | – | > 100 µM (inactive) | > 100 µM (inactive) | > 100 µM (inactive) | > 100 µM (inactive) | > 100 µM (inactive) | > 100 µM (inactive) | > 100 µM (inactive) | > 100 µM (inactive) | – | > 100 µM (inactive) | > 100 µM (inactive) | > 100 µM (inactive) |
| Nc1ccc(S(=O)(=O)NCc2nccs2)cc1 | 18.1 µM (inactive) | 19.2 µM (inactive) | 19.6 µM (inactive) | 18.4 µM (inactive) | 16.7 µM (inactive) | 19.9 µM (inactive) | 29.3 µM (inactive) | 29.1 µM (inactive) | 20.1 µM (inactive) | 17.9 µM (inactive) | 23.4 µM (inactive) | 22.2 µM (inactive) | 17.7 µM (inactive) | 22.2 µM (inactive) | 20.4 µM (inactive) | 23.2 µM (inactive) | 23.4 µM (inactive) | 30.5 µM (inactive) | – | 23.8 µM (inactive) |
| CCC(=O)NC(Nc1cccc(F)c1C)(C(F)(F)F)C(F)(F)F | > 100 µM (inactive) | – | > 100 µM (inactive) | > 100 µM (inactive) | > 100 µM (inactive) | > 100 µM (inactive) | – | > 100 µM (inactive) | > 100 µM (inactive) | > 100 µM (inactive) | > 100 µM (inactive) | > 100 µM (inactive) | > 100 µM (inactive) | > 100 µM (inactive) | > 100 µM (inactive) | > 100 µM (inactive) | > 100 µM (inactive) | > 100 µM (inactive) | > 100 µM (inactive) | > 100 µM (inactive) |
| CCCC[C@@H]1CCN2C[C@@H](O)[C@@H](O)[C@@H]2[C@H]1O | > 100 µM (inactive) | > 100 µM (inactive) | > 100 µM (inactive) | > 100 µM (inactive) | > 100 µM (inactive) | > 100 µM (inactive) | > 100 µM (inactive) | > 100 µM (inactive) | > 100 µM (inactive) | > 100 µM (inactive) | > 100 µM (inactive) | – | > 100 µM (inactive) | > 100 µM (inactive) | > 100 µM (inactive) | 89.9 µM (inactive) | > 100 µM (inactive) | > 100 µM (inactive) | > 100 µM (inactive) | > 100 µM (inactive) |
| O=C1CCCC2C3CC(CN12)C1CCCCN1C3.[O-][Cl+3]([O-])([O-])O (stereo not drawn) | > 100 µM (inactive) | > 100 µM (inactive) | > 100 µM (inactive) | > 100 µM (inactive) | > 100 µM (inactive) | > 100 µM (inactive) | > 100 µM (inactive) | > 100 µM (inactive) | > 100 µM (inactive) | > 100 µM (inactive) | > 100 µM (inactive) | > 100 µM (inactive) | > 100 µM (inactive) | > 100 µM (inactive) | > 100 µM (inactive) | – | > 100 µM (inactive) | > 100 µM (inactive) | > 100 µM (inactive) | > 100 µM (inactive) |
